In US20250287955A1, “METHODS OF […] PLANT FROM INSECT PESTS” (NOVONESIS PLANT BIOSOLUTIONS A/S, priority 2018, published 2025):
Read-outs that look alike come from different tables or passages of the source.

System: 3rd instar cabbage looper
Experiment: cabbage leaf disc dip bioassay, mortality of cabbage looper
Format: in vivo
Procedure: An enzyme preparation, designated A, comprising an enzyme having lipase activity was diluted to 10% of the original concentration. 1 mL of the enzyme was added to 9 mL of phosphate buffered saline (PBS). The diluted enzyme was desalted using a desalting column from Sigma Aldrich. Each column having the capacity to desalt 2.5 mL of enzyme, 4 columns for the enzyme were used. Each column was equilibrated with 25 mL of PBS. 2.5 mL of sample was loaded into the column, the flow thru was discarded. 3.5 mL of PBS was added to elute the desalted enzyme. This flow thru was collected for use in the bioassay. 4.95 mL of the desalted enzyme was added to 99 mL PBS.
The chlorpyrifos insecticide (Sigma 45395) was prepared based on a stock solution of 10× (113 mg/L) using acetone. The insecticide was then diluted further using acetone to a 1:6 ratio.
Approximately 0.3 g of super absorbent granules were placed into 1.25 ounce cups and 6 mL of deionized water was added to hydrate the granules. Discs of green cabbage (2.8 cm) were cut with plastic tubing after the outer leaves had been removed. One disc was used for each individual insect. After cutting, leaf discs were rinsed in deionized water and spin dried in a small salad spinner to remove excess water.
Liquid treatments were poured into either 50 mL glass beakers for the insecticide or medium weigh boats for aqueous treatments and cabbage leaf discs were dipped in the treatment with disposable forceps, tilted to allow excess liquid to run off, and placed into cups with hydrated granules at an angle.
The cabbage leaf discs were dipped in either acetone (enzyme alone treatment) or chlorpyrifos at 18.83 mg/L of acetone. These were set to dry for 1 hr. The cabbage discs were then dipped either in phosphate buffer (chlorpyrifos alone treatments) or Enzyme A (enzyme alone or in combination with chlorpyrifos treatment), along with a 0.03% surfactant supplement.
After the cabbage discs had dried for 1 hr, a single 3rd instar cabbage looper was added to each individual cabbage disc in its cup and a paperboard lid was snapped into place. A total of 20 insects were evaluated for each treatment.
Experiment 2: This experiment was performed similar to Experiment 1, except the chemical insecticide was Clothianidin at 1:2, and the enzyme preparation, designated B, comprises an enzyme having glucosidase activity.
Experiment 3: This experiment was performed similar to Experiment 2, except the enzyme preparations, designated C and D, respectively, each comprises a different enzyme having protease activity.

SMILES	LT50 (95% confidence intervals) in days (Experiment 1, estimated time to kill 50% of the insects, Probit analysis, chlorpyrifos 18.83 mg/L, Enzyme A 0.05%, 20 insects per treatment)	mortality at 18.83 µg/mL (Trichoplusia ni, foliar, 168 h, read-out: % Mortality (7DAT), Experiment 1, Abbott's corrected, 7 days after treatment, chlorpyrifos 18.83 mg/L, Enzyme A 0.05%)	LT50 (95% confidence intervals) in days (Experiment 2, Probit analysis, clothianidin 30 mg/L)	LT50 (95% confidence intervals) (Experiment 3, Probit analysis, clothianidin 30 mg/L)	mortality (Trichoplusia ni, foliar, 120 h, Experiment 3, Abbott's corrected, 5 days after treatment, clothianidin 30 mg/L, read-out: % Mortality (5DAT))	mortality at 30 µg/mL (Trichoplusia ni, foliar, 144 h, Experiment 2, Abbott's corrected, 6 days after treatment, clothianidin 30 mg/L, read-out: % Mortality (6DAT))	mortality (Trichoplusia ni, foliar, 144 h, Experiment 3, Abbott's corrected, 6 days after treatment, clothianidin 30 mg/L, read-out: % Mortality (6DAT))	mortality (Trichoplusia ni, foliar, 168 h, Experiment 3, Abbott's corrected, 7 days after treatment, clothianidin 30 mg/L, read-out: % Mortality (7DAT))	mortality (Trichoplusia ni, foliar, 336 h, Experiment 3, Abbott's corrected, 14 days after treatment, clothianidin 30 mg/L, read-out: % Mortality (14DAT))	mortality (Trichoplusia ni, foliar, Experiment 3, Abbott's corrected, 8-11 days after treatment, clothianidin 30 mg/L, read-out: % Mortality (8-11DAT))	mortality (Trichoplusia ni, foliar, Experiment 3, Abbott's corrected, 12-13 days after treatment, clothianidin 30 mg/L, read-out: % Mortality (12-13DAT))
CCOP(=S)(OCC)Oc1nc(Cl)c(Cl)cc1Cl [Chlorpyrifos, chlorpyrifos]	11.11 (9.90-12.48) days	11%	–	–	–	–	–	–	–	–	–
CN/C(=N\[N+](=O)[O-])NCc1cnc(Cl)s1 [Clothianidin]	–	–	19.37 (16.23-23.38) days	12.34 days	15%	0%	20%	30%	45%	40%	45%
